Values quoted from earlier work in publication PMC4258163 (Bioorganic & medicinal chemistry letters, 2014).

Assays:
[1] = systemic administration, mice
[2] = tested on: animal model of anxiety; settings: versus selective FAAH or TRPV1 inhibitors
[3] = tested on: osteoarthritis pain

Row | Structure (SMILES) | Hyperthermia [1] | Effectiveness in an animal model of anxiety [2] | excess of anandamide in the blood of patients ([3]; patients treated with the inhibitor) | Efficacy in treating osteoarthritis pain ([3]; phase II clinical trial, compared with naproxen)
1 | CCCCC/C=C\C/C=C\C/C=C\C/C=C\CCCC(=O)NCCc1c[nH]c2ccc(O)cc12 [AA-5-HT, N-arachidonoyl serotonin] | did not cause hyperthermia | more effective |  | 
2 | O=C(Nc1cccnn1)N1CCC(=Cc2cccc(Oc3ccc(C(F)(F)F)cn3)c2)CC1 [PF-04457845] |  |  | greater than 10 fold | lack of efficacy
